“Also recorded” adds a separate entry of the source.

Results on one substance are retold here after patent US20100286762A1, “Compositions and Methods for Ameliorating Clinical Electrical Disturbances” (MUSC Foundation for Research Development, priority 2009, published 2010).

The subject of test [1] is cryoinjured mouse hearts. Put plainly: Arrhythmia induction (S2-S3 premature beat protocol, overdrive pacing) in Langendorff-perfused hearts one week after cryoinjury. It is filed as in vivo. The method, then:
Following cryoinjury by application of 3 mm liquid nitrogen chilled probe hearts in anesthetized mice were treated with a methycellulose patch containing either ˜9 ug of ACT1 peptide, ˜9 ug of reverse control peptide or no peptide (vehicle control). Mice were then allowed to recover for a week. A week following the injury, Langherdorf-perfused hearts from the mice were subject to 2 types of electrical stimulation inducing arrhythmia: a) S2-S3 premature beat protocol and b) Overdrive pacing. Electrical recordings were made and induced arrhythmic behaviors were categorized including delayed after depolarizations, ectopic beats, ventricular tachycardia, and ventricular fibrillation. […] Severity was graded according to the electrical abnormality noted (e.g. ventricular tachycardia was scored lower than ventricular fibrillation) and the persistence of the electrical abnormality (e.g. intermittent tachycardia was scored lower than persistent tachycardia). […] A similar trend is seen in response to overdrive pacing, although in this case the difference between the treatment and controls are not significant at p=0.05. The “All control” group represents pooled reverse and vehicle control counts.

Test [2] has as its system HeLa cells expressing wt Cx43. Nature of the test: Scrape loading assay of GJ intercellular communication (GJIC). Format: cell-based. The settings on record: relative to control and parental non-connexin expressing cells, p<0.05. The text has this:
It has been previously shown that inhibition of ZO-1 interaction with Cx43 increases GJ size in HeLa Cx43 and increases the proportion of Triton-insoluble-Cx43 in GJs, without altering Cx43 expression levels or turnover (Hunter et al., 2005). Based on this and other data, it was proposed that ZO-1 inhibits the transition from non-junctional and gap junctional Cx43 (Hunter et al. 2005). The question of where ZO-1 exerted this control to this point is unknown. Here, it is disclosed that ZO-1 regulates movement of connexons in the plasma membrane into GJs. FIG. 1 outlines how this works. The model disclosed herein predicts that inhibiting Cx43/ZO-1 interaction will result in an increase in GJ intercellular communication (GJIC) and a complementary decrease of free-membrane connexons. The well-characterized “scrape loading” technique was used to assess GJIC in HeLa cells expressing wt Cx43.

The subject of test [3] is Cx43 hemichannel in HeLa Cx43 cells. Put plainly: Connexon channel (hemichannel) function by EtdBr uptake in live cells. Format: cell-based. The procedure: Functional and biochemical assays were used to assess whether the predicted reduction in free-membrane connexons occurs. First, connexon channel (hemichannel) function was assayed using EtdBr uptake in live cells as described by Saez and co-workers. […] In a variant of this experiment, the cells were also cultured at low density such that no GJs could form. Again consistent with the model, in the absence of GJs for free connexons in the membrane to be recruited to, ACT1 had no affect (FIG. 2).

Test [4] relates to neonatal rat ventricular myocytes (NVRMs) monolayers and NCRFs. Nature of the test: Adherence of dispersed fibroblasts (NCRFs) to myocyte (NVRM) monolayers. Format: cell-based. The settings on record: 48 hr timecourse. The procedure: (§1) FIGS. 4A-4F show ZO-1 regulation of differential adhesion between Cx43 expressing cells. A. Segregation of Cx43-GFP cells from DiI-labeled HeLa Cx43 cells. […] C and D. Cohesion patterns of orange-tagged NVRMs from green-tagged NCRFs following control (top) or ACT1ACT1 (bottom) incubation. […] Scale A=5 um, C, D=25 um.
(§2) In another approach neonatal rat ventricular myocytes (NVRMs) were cultured as monolayers and the propensity of added dispersed NCRFs to adhere to this layer was measured. […] In the second approach, green CellTracker-tagged fibroblasts are mixed with orange CellTracker-tagged myocytes and cultured as aggregates (FIG. 4C,D). […] Disclosed herein, and supported by the disclosed data, the regulation of connexon aggregation via ZO-1 PDZ2 can dynamically adjust the level of differential adhesivity between cells in heterocellular contacts (e.g., fibroblasts and myocytes).

The test system of another test is NVRM / NCRF aggregates. Put plainly: Mixed aggregate culture of CellTracker-tagged fibroblasts and myocytes. It is filed as cell-based, rat. The settings on record: relative to control aggregates. The method, then:
as §1, §2

Test [5] deals with cryoinjured mouse hearts. The settings on record: formulation applied coincident with cryo-infarction; 1 week following the injury; O'Quinn et al., Circulation, 2008; cited from earlier work.
Setting [6] is: S2-S3 premature beat protocol, methycellulose patch ~9 ug peptide at cryoinjury, hearts tested a week later.
Setting [7] is: overdrive pacing, methycellulose patch ~9 ug peptide at cryoinjury, hearts tested a week later.

On to “ACT1: Cx43 CT sequence RPRPDDLEI (SEQ ID NO:1), can be attached to antennapedia sequence: RQPKIWFPNRRKPWKK RPRPDDLEI (SEQ ID NO3) (optionally antennapedia sequence; UniProt P17302 374-382, looked up, fragment)”, for which, in the test with cryoinjured mouse hearts [1] (setting [6]), the “S2-S3 Protocol Arrhythmic (numbers of mice displaying an arrhythmia response)” value was 1 and the “S2-S3 Protocol Stable (numbers of mice)” value was found to be 6. In the test on cryoinjured mouse hearts [1] (setting [7]), the “Overdrive Pacing Arrhythmia (numbers of mice displaying an arrhythmia response)” value is 2 and the “Overdrive Pacing Stable (numbers of mice)” value was found to be 5. Besides, the “Arrhythmia Severity Index Mean” value with cryoinjured mouse hearts [1] (severity graded by electrical abnormality and its persistence, patch ~9 ug peptide, a week after cryoinjury) is recorded as 1.71. Further, the “electrical stability in response to the S2-S3 arrhythmia induction protocol” value with cryoinjured mouse hearts [1] (vs controls, chi squares p=0.05 or below) was “improved electrical stability”. For the same substance, the “GJ intercellular communication (GJIC)” value in test [2] was “significantly increased GJIC”. The “hemichannel activity (EtdBr uptake), cells at low density” value in test [3] (cells cultured at low density such that no GJs could form) is listed as “no affect”. Besides, the “hemichannel activity (EtdBr uptake)” value in test [3] (contacting HeLa Cx43 cells, relative to controls and non-connexin expressing HeLa cells, p<0.05) is given as “significantly decreases EtdBr uptake; also recorded: decreased hemichannel activity”. In addition, the “adherence of NCRFs to NVRM monolayers” value in test [4] is “decreased the adherence”. Moreover, the “adherence of NCRFs to NVRM monolayers” value in test [4] (listed as ACT1ACT1) was “reduction in fibroblast (NCRF) adhesion”. In addition, in the test with NVRM / NCRF aggregates, the “exclusion/loss of NCRFs from aggregates” value was “increased exclusion/loss of NCRFs”; the “segregation of myocytes and fibroblasts in aggregates / cohesion index (% co-localization orange and green) of NVRMs” value was “tend to segregate into cohesive domains of like cells”. In the test with NVRM / NCRF aggregates (listed as ACT1ACT1), the “exclusion/loss of NCRFs from aggregates” value is “Fibroblasts are excluded more”; the “segregation of myocytes and fibroblasts in aggregates / cohesion index (% co-localization orange and green) of NVRMs” value is “is higher”. For the same substance, the “arrhythmia susceptibility of heart after cryo-infarction to the ventricle” value with cryoinjured mouse hearts [5] was “renders the heart refractory to arrhythmia-inducing electrophysiological protocols”.
